Experimental data: patent publication US20060229299A1, “5ht2c Receptor antagonists in the treatment of schizophrenia” (priority 2003, published 2006)

Key:
D3 dopamine receptor = D3 dopamine receptor (Homo sapiens, UniProt P35462); details: ref 11 (human and for ritanserin data also rat); cited from earlier work
[1] = system: 5-HT2C receptor relative to 5-HT2A and D2 receptors; assay: Relative 5-HT2C affinity (formula I, sum of 5-HT2C/5-HT2A and 5-HT2C/D2 affinity ratios); details: Table 2; sum of affinity ratios from data of Table 1
5-HT2C receptor [2] = target: T1, 5-HT2C receptor (Homo sapiens, UniProt P28335); details: Table 3; expressed as pKi or pKd values; known affinities; cited from earlier work
T1 sequence (P28335 33-458): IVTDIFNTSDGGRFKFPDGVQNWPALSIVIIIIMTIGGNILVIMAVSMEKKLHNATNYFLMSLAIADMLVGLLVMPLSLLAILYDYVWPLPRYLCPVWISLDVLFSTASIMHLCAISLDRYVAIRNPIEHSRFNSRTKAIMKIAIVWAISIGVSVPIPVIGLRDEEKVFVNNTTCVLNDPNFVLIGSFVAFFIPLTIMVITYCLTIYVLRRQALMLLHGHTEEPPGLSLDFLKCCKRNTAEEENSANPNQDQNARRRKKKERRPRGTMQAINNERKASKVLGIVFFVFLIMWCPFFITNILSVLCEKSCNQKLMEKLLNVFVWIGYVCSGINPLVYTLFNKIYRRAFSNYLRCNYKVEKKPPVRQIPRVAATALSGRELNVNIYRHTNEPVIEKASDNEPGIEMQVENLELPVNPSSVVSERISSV

D2 receptor = D2 receptor (Homo sapiens, UniProt P14416); details: Table 3; expressed as pKi or pKd values; known affinities; cited from earlier work
α1-adrenoceptor = details: ref 11 (human and for ritanserin data also rat); cited from earlier work
sigma, σ receptor = details: ref 11 (human and for ritanserin data also rat); cited from earlier work
[3] = target: mACh, muscarinic acetylcholine receptor; details: ref 11 (human and for ritanserin data also rat); cited from earlier work
[4] = target: D2-L (long form of D2 receptor) (Homo sapiens, UniProt P14416); details: ref 11 (human and for ritanserin data also rat); cited from earlier work
α2-adrenoceptor = details: ref 11 (human and for ritanserin data also rat); cited from earlier work
5-HT2C receptor [5] = target: 5-HT2C receptor (UniProt P28335); details: ref 11 (human and for ritanserin data also rat); cited from earlier work
H1 histamine receptor = H1 histamine receptor (Homo sapiens, UniProt P35367); details: ref 11 (human and for ritanserin data also rat); cited from earlier work
5-HT7 receptor = 5-HT7 receptor (UniProt P34969); details: ref 11 (human and for ritanserin data also rat); cited from earlier work
D1 dopamine receptor = details: ref 11 (human and for ritanserin data also rat); cited from earlier work

D2 receptor, sequence (P14416 whole entry): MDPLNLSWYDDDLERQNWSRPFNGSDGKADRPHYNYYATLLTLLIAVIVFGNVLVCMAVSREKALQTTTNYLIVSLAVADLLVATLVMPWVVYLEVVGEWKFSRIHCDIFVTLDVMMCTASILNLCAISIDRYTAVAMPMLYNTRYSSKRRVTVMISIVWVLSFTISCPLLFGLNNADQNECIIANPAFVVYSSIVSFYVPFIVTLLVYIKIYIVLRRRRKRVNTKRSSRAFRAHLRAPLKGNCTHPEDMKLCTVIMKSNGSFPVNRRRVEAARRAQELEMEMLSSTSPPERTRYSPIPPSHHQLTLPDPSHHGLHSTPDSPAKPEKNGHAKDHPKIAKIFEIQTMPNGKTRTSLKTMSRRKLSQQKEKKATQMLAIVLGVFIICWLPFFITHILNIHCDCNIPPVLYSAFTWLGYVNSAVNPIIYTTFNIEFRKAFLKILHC

Cc1nc2sccn2c(=O)c1CCN1CCC(=C(c2ccc(F)cc2)c2ccc(F)cc2)CC1 [Ritanserin]
D3 affinity value (−logKi) (D3 dopamine receptor): 7.1^11
(2C/2A) + (2C/D2) [1]: 2.15
5-HT2C Affinity (5-HT2C receptor [2]): 9
D2 Affinity (D2 receptor): 7.4
α1 affinity value (−logKi) (α1-adrenoceptor): 7.5^11
sigma affinity value (−logKi) (sigma, σ receptor): 6.1^11
mACh affinity value (−logKi) [3]: 5.4^11
D2-L affinity value (−logKi) [4]: 7.4^11
α2 affinity value (−logKi) (α2-adrenoceptor): 7.3^11
5-HT2C affinity value (−logKi) (5-HT2C receptor [5]): 9.0^11
H1 affinity value (−logKi) (H1 histamine receptor): 8.2^11
5-HT7 affinity value (−logKi) (5-HT7 receptor): 7.8^11
D1 affinity value (−logKi) (D1 dopamine receptor): 5.9^11
